Source: the NIST ThermoML archive (doi:10.1021/je800925v)

Experiment: xn = mol fraction of the nth substance listed
Conditions: Liquid

CCCCCCCCCC [decane] + CCO
Conditions | mass density [kg/m3] | viscosity [mPa·s]
273.15 K, x2 = 0.098 | 746.5 | 1.236
273.15 K, x2 = 0.198 | 748.3 | 1.257
273.15 K, x2 = 0.301 | 750.7 | 1.273
273.15 K, x2 = 0.397 | 753.8 | 1.328
273.15 K, x2 = 0.501 | 757.4 | 1.429
273.15 K, x2 = 0.602 | 762.7 | 1.523
273.15 K, x2 = 0.694 | 767.4 | 1.53
273.15 K, x2 = 0.799 | 774.9 | 1.565
273.15 K, x2 = 0.905 | 787.7 | 1.639
275.65 K, x2 = 0.098 | 744.6 | 1.181
275.65 K, x2 = 0.198 | 746.4 | 1.2
275.65 K, x2 = 0.301 | 748.7 | 1.213
275.65 K, x2 = 0.397 | 751.8 | 1.263
275.65 K, x2 = 0.501 | 755.4 | 1.351
275.65 K, x2 = 0.602 | 760.7 | 1.432
275.65 K, x2 = 0.694 | 765.4 | 1.448
275.65 K, x2 = 0.799 | 772.9 | 1.486
275.65 K, x2 = 0.905 | 785.7 | 1.557
278.15 K, x2 = 0.098 | 742.7 | 1.13
278.15 K, x2 = 0.198 | 744.4 | 1.148
278.15 K, x2 = 0.301 | 746.8 | 1.158
278.15 K, x2 = 0.397 | 749.9 | 1.203
278.15 K, x2 = 0.501 | 753.4 | 1.281
278.15 K, x2 = 0.602 | 758.7 | 1.353
278.15 K, x2 = 0.694 | 763.3 | 1.374
278.15 K, x2 = 0.799 | 770.9 | 1.412
278.15 K, x2 = 0.905 | 783.6 | 1.48
280.65 K, x2 = 0.098 | 740.8 | 1.083
280.65 K, x2 = 0.198 | 742.5 | 1.099
280.65 K, x2 = 0.301 | 744.8 | 1.107
280.65 K, x2 = 0.397 | 747.9 | 1.147
280.65 K, x2 = 0.501 | 751.5 | 1.217
280.65 K, x2 = 0.602 | 756.7 | 1.282
280.65 K, x2 = 0.694 | 761.3 | 1.305
280.65 K, x2 = 0.799 | 768.8 | 1.344
280.65 K, x2 = 0.905 | 781.6 | 1.408
283.15 K, x2 = 0.098 | 738.9 | 1.038
283.15 K, x2 = 0.198 | 740.6 | 1.053
283.15 K, x2 = 0.301 | 742.9 | 1.06
283.15 K, x2 = 0.397 | 746 | 1.096
283.15 K, x2 = 0.501 | 749.5 | 1.159
283.15 K, x2 = 0.602 | 754.7 | 1.219
283.15 K, x2 = 0.694 | 759.3 | 1.242
283.15 K, x2 = 0.799 | 766.8 | 1.28
283.15 K, x2 = 0.905 | 779.5 | 1.341
285.65 K, x2 = 0.098 | 737 | 0.9963
285.65 K, x2 = 0.198 | 738.7 | 1.01
285.65 K, x2 = 0.301 | 741 | 1.015
285.65 K, x2 = 0.397 | 744 | 1.048
285.65 K, x2 = 0.501 | 747.5 | 1.105
285.65 K, x2 = 0.602 | 752.7 | –
